In the supplement of paper PMC11208160:

Test: recombinant barcode read abundance after kanamycin selection (control-corrected) (log10(CPM+1)); higher = more efficient recombination; sequences stand for … in AGTGCAGAGAAAATCGGCCAGTTTTCTCTGCCTGCAGTCCGCATGCCGT…ATTTATGCAGCGGACTGCCTTTCTCCCAAAGTGATAAACCGGACAGTATCATGGACCGGTTTTCCCGGTAATCCGTATTTGCAAGGTTGGTTTCACT; site = the 11-nt target
Method in brief: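 Reported as log10(CPM+1), each value stands for recombination efficiency. That efficiency is the averaged, control-corrected counts per million of barcodes found at recombinant junctions. Cells from a pooled E. coli library pairing targets with IS621 bridge RNA target-binding loops were plated twice on chloramphenicol/ampicillin LB agar (control) and twice on chloramphenicol/ampicillin/kanamycin with 0.1 mM IPTG.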

Going from “TCTACCCCCTGGGTTCTAACCTGTTGCTGAG [TCTACCCCTCA_LTGcore_CC_RTGcore_CT] (site TCTACCCCTCA) (LTG core: CC, RTG core: CT)” to “TCTACCCCTTGGGTTCTAACCTGTTGCTGAG [TCTACCCCTCA_LTGcore_CT_RTGcore_CT] (site TCTACCCCTCA) (LTG core: CT, RTG core: CT)”, the “recombinant barcode read abundance (log10)” value rises from 0.0931 to 0.783.

“TCTACCCCTTGGGTTCTAACCTGTTGCTGAT [TCTACCCCTCA_LTGcore_CT_RTGcore_AT] (site TCTACCCCTCA) (LTG core: CT, RTG core: AT)” and “TCTACCCCTTGGGTTCTAACCTGTTGCTGGA [TCTACCCCTCA_LTGcore_CT_RTGcore_TC] (site TCTACCCCTCA) (LTG core: CT, RTG core: TC)” are within 0.2 log units of each other in “recombinant barcode read abundance (log10)” value: 0.131 for the first, 0.0313 for the second.

“TCTACCCCTTGGGTTCTAACCTGTTGCTGTA [TCTACCCCTCA_LTGcore_CT_RTGcore_TA] (site TCTACCCCTCA) (LTG core: CT, RTG core: TA)” and “TCTACCCGCTGGGTTCTAACCTGTTGCTGGC [TCTACCCCTCA_LTGcore_GC_RTGcore_GC] (site TCTACCCCTCA) (LTG core: GC, RTG core: GC)” are the same in “recombinant barcode read abundance (log10)” value: 0.124 for the first, 0.124 for the second.

“TCTACCCGTTGGGTTCTAACCTGTTGCTGAC [TCTACCCCTCA_LTGcore_GT_RTGcore_GT] (site TCTACCCCTCA) (LTG core: GT, RTG core: GT)” and “TGATACCAATGGGTTCTAACCTGTTGCGTTT [TGATACCCTAC_LTGcore_AA_RTGcore_AA] (site TGATACCCTAC) (LTG core: AA, RTG core: AA)” are within 0.2 log units of each other in “recombinant barcode read abundance (log10)” value: 0.0436 for the first, 0.0446 for the second.

Compared with “TGATACCAGTGGGTTCTAACCTGTTGCGTCT [TGATACCCTAC_LTGcore_AG_RTGcore_AG] (site TGATACCCTAC) (LTG core: AG, RTG core: AG)”, “TGATACCCATGGGTTCTAACCTGTTGCGTTG [TGATACCCTAC_LTGcore_CA_RTGcore_CA] (site TGATACCCTAC) (LTG core: CA, RTG core: CA)” is lower in “recombinant barcode read abundance (log10)” value: 0.256 for the first, 0.0326 for the second.

First: TGATACCCTTGGGTTCTAACCTGTTGCGTAC [TGATACCCTAC_LTGcore_CT_RTGcore_GT] (site TGATACCCTAC) (LTG core: CT, RTG core: GT)
Second: TGATACCCTTGGGTTCTAACCTGTTGCGTAG [TGATACCCTAC_LTGcore_CT_RTGcore_CT] (site TGATACCCTAC) (LTG core: CT, RTG core: CT)
The “recombinant barcode read abundance (log10)” value of the first is lower: 0.08 for the first, 2.73 for the second.

Compared with “TGATACCCTTGGGTTCTAACCTGTTGCGTCA [TGATACCCTAC_LTGcore_CT_RTGcore_TG] (site TGATACCCTAC) (LTG core: CT, RTG core: TG)”, “TGATACCCTTGGGTTCTAACCTGTTGCGTTA [TGATACCCTAC_LTGcore_CT_RTGcore_TA] (site TGATACCCTAC) (LTG core: CT, RTG core: TA)” is lower in “recombinant barcode read abundance (log10)” value: 0.796 for the first, 0.0153 for the second.

“TGATACCGATGGGTTCTAACCTGTTGCGTTC [TGATACCCTAC_LTGcore_GA_RTGcore_GA] (site TGATACCCTAC) (LTG core: GA, RTG core: GA)” and “TGATACCGGTGGGTTCTAACCTGTTGCGTAG [TGATACCCTAC_LTGcore_GG_RTGcore_CT] (site TGATACCCTAC) (LTG core: GG, RTG core: CT)” are within 0.2 log units of each other in “recombinant barcode read abundance (log10)” value: 0.269 for the first, 0.108 for the second.

Compared with “TGATACCTGTGGGTTCTAACCTGTTGCGTCA [TGATACCCTAC_LTGcore_TG_RTGcore_TG] (site TGATACCCTAC) (LTG core: TG, RTG core: TG)”, “TGTATTCAGTGGGTTCTAACCTGTTGCCTCT [TGTATTCCTAG_LTGcore_AG_RTGcore_AG] (site TGTATTCCTAG) (LTG core: AG, RTG core: AG)” is lower in “recombinant barcode read abundance (log10)” value: 0.256 for the first, 0.00767 for the second.

“TGTATTCATTGGGTTCTAACCTGTTGCCTAG [TGTATTCCTAG_LTGcore_AT_RTGcore_CT] (site TGTATTCCTAG) (LTG core: AT, RTG core: CT)” and “TGTATTCCATGGGTTCTAACCTGTTGCCTAG [TGTATTCCTAG_LTGcore_CA_RTGcore_CT] (site TGTATTCCTAG) (LTG core: CA, RTG core: CT)” are within 0.2 log units of each other in “recombinant barcode read abundance (log10)” value: 0.0853 for the first, 0.0466 for the second.

“TGTATTCCTTGGGTTCTAACCTGTTGCCTAG [TGTATTCCTAG_LTGcore_CT_RTGcore_CT] (site TGTATTCCTAG) (LTG core: CT, RTG core: CT)” and “TGTATTCCTTGGGTTCTAACCTGTTGCCTTA [TGTATTCCTAG_LTGcore_CT_RTGcore_TA] (site TGTATTCCTAG) (LTG core: CT, RTG core: TA)” are within 0.2 log units of each other in “recombinant barcode read abundance (log10)” value: 0.129 for the first, 0.0748 for the second.

“TGTATTCGATGGGTTCTAACCTGTTGCCTAG [TGTATTCCTAG_LTGcore_GA_RTGcore_CT] (site TGTATTCCTAG) (LTG core: GA, RTG core: CT)” and “TGTATTCGTTGGGTTCTAACCTGTTGCCTAG [TGTATTCCTAG_LTGcore_GT_RTGcore_CT] (site TGTATTCCTAG) (LTG core: GT, RTG core: CT)” are within 0.2 log units of each other in “recombinant barcode read abundance (log10)” value: 0.0114 for the first, 0.0893 for the second.

“TTATAAAACTGGGTTCTAACCTGTTGCCTGT [TTATAAACTAG_LTGcore_AC_RTGcore_AC] (site TTATAAACTAG) (LTG core: AC, RTG core: AC)” and “TTATAAAAGTGGGTTCTAACCTGTTGCCTCT [TTATAAACTAG_LTGcore_AG_RTGcore_AG] (site TTATAAACTAG) (LTG core: AG, RTG core: AG)” are within 0.2 log units of each other in “recombinant barcode read abundance (log10)” value: 0.0452 for the first, 0.0267 for the second.

Compared with “TTATAAACGTGGGTTCTAACCTGTTGCCTCG [TTATAAACTAG_LTGcore_CG_RTGcore_CG] (site TTATAAACTAG) (LTG core: CG, RTG core: CG)”, “TTATAAACTTGGGTTCTAACCTGTTGCCTCA [TTATAAACTAG_LTGcore_CT_RTGcore_TG] (site TTATAAACTAG) (LTG core: CT, RTG core: TG)” is higher in “recombinant barcode read abundance (log10)” value: 0.193 for the first, 0.402 for the second.

“TTATAAACTTGGGTTCTAACCTGTTGCCTCT [TTATAAACTAG_LTGcore_CT_RTGcore_AG] (site TTATAAACTAG) (LTG core: CT, RTG core: AG)” and “TTATAAACTTGGGTTCTAACCTGTTGCCTGT [TTATAAACTAG_LTGcore_CT_RTGcore_AC] (site TTATAAACTAG) (LTG core: CT, RTG core: AC)” are within 0.2 log units of each other in “recombinant barcode read abundance (log10)” value: 0.0489 for the first, 0.0449 for the second.

“TTATAAACTTGGGTTCTAACCTGTTGCCTTA [TTATAAACTAG_LTGcore_CT_RTGcore_TA] (site TTATAAACTAG) (LTG core: CT, RTG core: TA)” and “TTATAAAGCTGGGTTCTAACCTGTTGCCTGC [TTATAAACTAG_LTGcore_GC_RTGcore_GC] (site TTATAAACTAG) (LTG core: GC, RTG core: GC)” are within 0.2 log units of each other in “recombinant barcode read abundance (log10)” value: 0.076 for the first, 0 for the second.

“TTATAAATCTGGGTTCTAACCTGTTGCCTAG [TTATAAACTAG_LTGcore_TC_RTGcore_CT] (site TTATAAACTAG) (LTG core: TC, RTG core: CT)” and “TTATAAATTTGGGTTCTAACCTGTTGCCTAA [TTATAAACTAG_LTGcore_TT_RTGcore_TT] (site TTATAAACTAG) (LTG core: TT, RTG core: TT)” are within 0.2 log units of each other in “recombinant barcode read abundance (log10)” value: 0.235 for the first, 0.0515 for the second.
